Measured values from patent US12122786B2, “Inhibitors of cyclic mono- and di-nucleotide phosphodiesterases and the uses thereof” (priority 2020, dated 2024).

Legend:
[1] = system: GBS-CdnP; test: Selectivity, HPLC analysis of GBS CdnP reaction; conditions: 50 μM c-di-AMP, 100 nM GBS CdnP, room temperature, 15 min
[2] = target: T1, MTB CdnP (Mycobacterium tuberculosis, UniProt P71615); test: HPLC analysis of c-di-AMP cleavage by MTB CdnP; type: biochemical; conditions: 20 μM compound, 100 nM MTB CdnP, 70 μM c-di-AMP, 37° C.
[3] = target: T1, MTB CdnP; type: biochemical; conditions: 20 to 150 μM inhibitor, 0.5 μM MTB CdnP, 1 h at 37° C.
[4] = target: RocR (Pseudomonas aeruginosa, UniProt Q9HX69); test: Selectivity, HPLC analysis of RocR reaction; conditions: 25 μM c-di-GMP, 10 nM RocR, 37° C., 60 min
[5] = target: T1, MTB CdnP; test: Kinetics study (Dixon plot) by coralyne assay; type: biochemical; conditions: 50 nM MTB CdnP, 30° C., read-out: apparent inhibition constant
Experimental: FIG. 8: C82 Dixon plot. Initial velocity was determined using slope of c-di-AMP hydrolysis kinetics.
(§1) Next, we sought to determine C82 mode of inhibition. Firstly, we confirmed that C82 does indeed bind to MTB CdnP, using intrinsic fluorescence assay^20. […] We then determined whether C82 could displace bound c-di-AMP from MTB CdnP. […] We also used a secondary fluorescent polarization displacement assay to confirm this finding. Briefly, fluorescent labeled c-di-GMP was incubated with MTB CdnP and treated with different concentrations of C82, or c-di-AMP in the presence of calcium to inhibit the cleavage of the bound CDN′″. […] We therefore concluded that C82 inhibits MTB CdnP by binding to a non-cyclic dinucleotide binding site. Kinetics studies reveal that C82 inhibits MTB CdnP with an apparent inhibition constant of approximately 8 μM (FIG. 8). Future structural work, beyond the scope of this work should help clarify the binding site of C82.

[6] = target: T2, PDE5A (Homo sapiens, UniProt O76074); test: Cyclic mononucleotide phosphodiesterase inhibition (PDE5A), Transcreener fluorescence polarization assay; type: biochemical; conditions: 10 μM of compound, 1 μM cGMP, 1 h
T2 construct: purchased Reaction Biology
Experimental: Cyclic mononucleotide phosphodiesterase inhibition (PDE5A): 10 μM of compound was added to PDE5A in Buffer (10 mM Tris, pH 7.5, 5 mM MgCl2, 0.01% Brij 35, 1 mM DTT, and 1% DMSO). 1 μM cGMP was added and the reaction was incubated for 1 h. The assay used detects the reaction product, GMP, by Transcreener Fluorescence polarization assay (Reaction Biology).

[7] = target: poxin (Vaccinia virus, UniProt Q01225); test: Selectivity, HPLC analysis of poxin reaction; conditions: 20 μM 2′3 cGAMP, 5 nM poxin, room temperature, 20 min
[8] = target: T1, MTB CdnP; test: Fluorescence polarization competition assay; type: binding; conditions: 150 μM MTB CdnP, 50 nM F-c-di-GMP, calcium
Experimental: (§2) FIG. 7A: unlabeled c-di-AMP inhibits ^32P-c-di-AMP sequestering by MTB CdnP in a concentration dependent manner. FIG. 7B: C82 effects on ^32P-c-di-AMP sequestering by MTB CdnP. […] CDA=c-di-AMP. ***=p-value<0.001. Statistical analysis conducted using the student's t-test.
as §1
Fluorescence polarization was determined using Biotek Cytation 5 multi-mode reader (excitation 485 nm/20 and emission 528 nm/20). Anisotropy was calculated using the GEN 5™ microplate reader and imaging software.

[9] = target: T1, MTB CdnP; test: Intrinsic fluorescence binding assay; conditions: 2 μM MTB CdnP, varying concentrations, 1× PBS
Experimental: as §1
Solutions containing 2 μM MTB CndP, and varying concentrations of C82 in 1× PBS were incubated for 30 min at room temperature. Fluorescence spectra were obtained by measuring fluorescence intensities in the 310 nm to 400 nm range following an excitation at 290 nm wavelength.

[10] = target: Yybt (Bacillus subtilis, UniProt P37484); test: Selectivity, HPLC analysis of Yybt reaction; conditions: 70 μM c-di-AMP, 1 μM Yybt, 37° C., 60 min
[11] = target: T1, MTB CdnP; test: Differential radial capillary action of ligand assay (DRaCALA); type: binding; conditions: 20 μM MTB CdnP, 200 pM 32P c-di-AMP; C82 even at 300 μM
Experimental: as §2, §1
5 μl of the reaction mixture was pipetted onto dry untreated nitrocellulose membrane (GE Healthcare) and allowed to dry at room temperature. The nitrocellulose membrane was exposed to the GE Storage Phosphor screen for 8 h and then visualized with Typhoon™ FLA 9500 biomolecular imager.

[12] = target: T3, ENPP1 (Homo sapiens, UniProt P22413); test: Selectivity, HPLC analysis of ENPP1 reaction; conditions: 25 μM cGAMP, 4.58 nM ENPP1, 37° C., 60 min
T3 sequence (P22413 1-925): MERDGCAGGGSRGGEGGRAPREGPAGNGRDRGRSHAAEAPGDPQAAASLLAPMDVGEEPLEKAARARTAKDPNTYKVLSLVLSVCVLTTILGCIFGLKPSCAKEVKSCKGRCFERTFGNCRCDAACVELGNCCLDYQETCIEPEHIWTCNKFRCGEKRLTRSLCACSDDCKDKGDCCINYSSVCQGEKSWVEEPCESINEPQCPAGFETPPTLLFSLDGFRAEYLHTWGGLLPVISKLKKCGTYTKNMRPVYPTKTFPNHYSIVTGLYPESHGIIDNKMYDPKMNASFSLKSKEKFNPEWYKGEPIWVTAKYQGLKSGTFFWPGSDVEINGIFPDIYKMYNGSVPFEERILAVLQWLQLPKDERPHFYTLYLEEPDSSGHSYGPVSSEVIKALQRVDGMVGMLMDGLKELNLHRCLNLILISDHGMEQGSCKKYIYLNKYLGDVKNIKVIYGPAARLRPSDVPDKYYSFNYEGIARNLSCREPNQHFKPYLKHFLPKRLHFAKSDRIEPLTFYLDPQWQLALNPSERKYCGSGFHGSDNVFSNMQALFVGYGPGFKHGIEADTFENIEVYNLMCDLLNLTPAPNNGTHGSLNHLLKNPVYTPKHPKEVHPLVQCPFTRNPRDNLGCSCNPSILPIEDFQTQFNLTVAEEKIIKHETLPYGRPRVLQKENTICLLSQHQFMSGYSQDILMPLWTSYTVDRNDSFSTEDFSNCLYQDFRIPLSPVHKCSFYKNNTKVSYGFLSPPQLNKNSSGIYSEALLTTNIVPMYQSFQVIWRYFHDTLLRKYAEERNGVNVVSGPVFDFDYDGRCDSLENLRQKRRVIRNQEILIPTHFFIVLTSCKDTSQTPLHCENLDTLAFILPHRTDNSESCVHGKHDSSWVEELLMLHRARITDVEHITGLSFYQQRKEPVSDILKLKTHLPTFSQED

[13] = target: T1, MTB CdnP; test: IC50 determination of MTB CdnP inhibition, coralyne assay; type: biochemical; conditions: 50 nM MTB CdnP and 80 μM c-di-AMP, read-out: IC50 of MTB CdnP enzymatic activity inhibition
[14] = system: mammalian cells (MDA-MB-231, and MRC-5); conditions: up to 100 μM, 24 h
[15] = system: PDE3; conditions: read-out: IC50 (PDE3 inhibitor); cited from earlier work
[16] = system: PDE4; conditions: read-out: IC50 (PDE4 inhibitor); cited from earlier work
[17] = system: PDE10; conditions: read-out: IC50 (PDE10 inhibitor); cited from earlier work

CCc1cc2c(=O)n(CC(=O)Nc3ccccc3OC)cnc2s1 [Compound C82]
inhibition of GBS-CdnP [1]: did not inhibit
inhibition of c-di-AMP cleavage by MTB CdnP (HPLC), 3 h incubation ([2]; 3 h): most potent inhibitory effects
inhibition of c-di-AMP cleavage by MTB CdnP (HPLC), overnight (12 h) incubation ([2]; 12 h): retained any inhibitory effect
inhibition of c-di-AMP hydrolysis by MTB CdnP (TLC), varying inhibitor concentrations [3]: most potent inhibition
inhibition of RocR [4]: did not inhibit
Ki [5]: ~8 µM
% inhibition (PDE5A) [6]: 32.00%
inhibition of poxin [7]: did not inhibit
displacement of fluorescent labeled c-di-GMP from MTB CdnP (fluorescence polarization) [8]: did not displace the fluorescent labeled c-di-GMP
binding to MTB CdnP (intrinsic fluorescence decay) [9]: does bind to MTB CdnP
inhibition of Yybt [10]: did not inhibit
displacement of radiolabeled c-di-AMP from MTB CdnP (DRaCALA) [11]: did not displace radiolabeled c-di-AMP
inhibition of ENPP1 [12]: did not inhibit
IC50 [13]: 17.4 µM
cytotoxicity against mammalian cells (cell viability) [14]: did not significantly inhibit cell viability

CSc1ccc(C(=O)c2[nH]c(=O)[nH]c2C)cc1 [enoximone]
IC50 [15]: 10 µM

CCOc1cc([C@@H](CS(C)(=O)=O)N2C(=O)c3cccc(NC(C)=O)c3C2=O)ccc1OC [apremilast]
IC50 [16]: 74 nM

COc1ccc(Cc2nccc3cc(OC)c(OC)cc23)cc1OC [papaverine]
IC50 [17]: 92.3 nM

Nc1ncnc2c1ncn2[C@@H]1O[C@@H]2COP(=O)(O)O[C@H]3[C@@H](O)[C@H](n4cnc5c(N)ncnc54)O[C@@H]3COP(=O)(O)O[C@H]2[C@H]1O [c-di-AMP, reference compound]
displacement of radiolabeled c-di-AMP from MTB CdnP (DRaCALA) [11]: could displace radiolabeled c-di-AMP
